Reference: patent publication US6121322A, “Azulene derivatives” (Boehringer Mannheim GmbH, priority 1997, dated 2000)
Converted amounts (≈) assume the structure as drawn. “Also recorded” adds a separate entry of the source.

What was measured:
TNFα synthesis = test: TNFα Synthesis Assay (LPS-stimulated human leukocytes, TNFα in supernatant by enzyme immunoassay); type: cell-based; settings: Leukocyte, 37° C., 2 hours, read-out: TNFα synthesis inhibition in vitro IC50
Protocol: Experimental Procedure in Vitro
Human leukocytes are obtained from heparinized full blood over a Ficol gradient, washed with RPMI 1640 medium having the prescribed additives and adjusted in the same medium to a cell count of 1×10^6 cells/ml. 20 μl of the substance to be tested in 10-fold concentration, 20 μl of an LPS solution of 4 μg/ml and 160 μl of the adjusted cell suspension are incubated in the individual wells of a 96 well culture plate at 37° C. for 2 hours. The experiments are carried out as double determinations. At the end of the incubation period the plates are carefully shaken and centrifuged. Two samples each of 50 μl are withdrawn from the clear culture supernatant for the analysis of TNFα.
Analysis of TNFα in the Cell Cupernatant by Enzyme Immunoassay
Nunc-Maxisorb plates are coated with a mouse-anti-human-TNFα antibody (1 μg/ml, 50 μl/well, Dianova/Pharmingen 18631D, carbonate buffer pH 9.5) and free binding capacity is saturated with a gelatine- and serum albumin-containing blocking buffer. After washing the plates there are pipetted in double determination in each case 25 μl of the analyte as well as on each plate a series of standard concentrations. For the detection of the analyte, 25 μl of a biotinylated mouse-anti-human-TNFα antibody ([…] 25 μl/well, Dianova/Pharmingen 18642D, blocking buffer) are added and the plates are shaken at room temperature for 2 hours. After washing incubation is carried out with streptavidin-alkaline phosphatase conjugate (50 μl/well) and finally with 4-nitrophenyl phosphate and evaluation is carried out on a photometer. The concentrations of the measured samples are determined using a computer program based on a calibration curve from the co-determined standard concentrations.
Determination of the IC50
The percentage inhibition for the individual sample is calculated by comparing the TNFα concentration obtained for the measured samples with the non-inhibited samples. The IC50 is determined by computer from the concentration relationship of the inhibitor value.

TNFα [1] = settings: cited from earlier work
[2] = in vivo; cited from earlier work
HIV = settings: cited from earlier work
[3] = system: animal models for multiple sclerosis; settings: animal experiments; cited from earlier work
PDE4 = settings: cited from earlier work
TNFα [4] = settings: in vivo; cited from earlier work

SMILES	IC50 (TNFα synthesis) [µg/mL]	side effects [2]	further results
CCOC(=O)c1c2ccc(CC(=O)NOC(=O)N3CCN(C)CC3)ccc-2c(C(=O)OCC)c1N [Example 31, Diethyl 2-amino-6-{[(4-methyl-piperazino)-carbonyloxy-carbamoyl]-methyl}-azulene-1,3-dicarboxylate]	0.1 (≈ 0.206 µM)		
CCOC(=O)c1c2ccc(CC(=O)NOCCN3CCOCC3)ccc-2c(C(=O)OCC)c1N [Example 20]	0.05 (≈ 0.106 µM)		
CCOC(=O)c1c2ccc(CC(=O)NOCC(=O)N(CCOC)CCOC)ccc-2c(C(=O)OCC)c1N [Example 4, Diethyl 2-amino-6-{[2-oxo-2-(N,N-bis-2-methoxyethyl-amino)-ethoxycarbamoyl]-methyl}-azulene-1,3-dicarboxylate]	0.03 (≈ 0.0562 µM)		
O=C1CCC(N2C(=O)c3ccccc3C2=O)C(=O)N1 (stereo not shown) [Thalidomide]		teratogenic side effects	TNFα blockade (TNFα [1]): weak TNFα blockade; suppression of the proliferation of HIV (HIV): supresses the proliferation of HIV
COc1ccc(C2CNC(=O)C2)cc1OC1CCCC1 (stereo not shown) [rolipram]		emetic activity; also recorded: massive side effects	activity in animal models for multiple sclerosis [3]: very good activity; inhibition of PDE4 (PDE4): inhibits PDE4; inhibition of the synthesis of TNFα (TNFα [4]): inhibition of the synthesis of TNFα in vitro and in vivo
